Test results taken from patent US20240018123A1, “COMPOUND FOR INHIBITING OR DISINTEGRATING ANDROGEN RECEPTOR, AND PHARMACEUTICAL USE THEREOF” (KOREA RESEARCH INSTITUTE OF CHEMICAL TECHNOLOGY, priority 2020, published 2024).

Test system: VCaP cells
Assay: Cytotoxicity assessment (Cell-titer-glo cell viability), VCaP
Conditions: read-out: VCaP (CC50); VCaP cells, 6 days of treatment, Cell-titer-glo, vs DMSO
Procedure: In order to evaluate the androgen receptor (AR) cytotoxicity of the compounds according to the present invention, the following experiment was conducted. Specifically, 1.5×10^3 (LNCaP) or 4×10^3 (VCaP, 22RV1), respectively, of LNCaP, VCaP, and 22RV1 cells were injected into each well of a 96-well plate. The next day, each well was treated with the compound at a final concentration of 3 nM, 10 nM, 30 nM, 100 nM, 300 nM, 1 μM, 3 μM, and 10 μM. […] After 6 days of treatment, Cell-titer-glo (promega) was treated and reacted for 10 minutes, and cell viability was measured with a multimode plate reader (PerkinElmer, Inc.), and the change was quantified compared to when DMSO was treated.

SMILES: CC1(C)C(NC(=O)c2ccc(-n3cc(CNC(=O)CNc4ccc5nnn(C6CCC(=O)NC6=O)c(=O)c5c4)nn3)cc2)C(C)(C)C1Oc1ccc(C#N)c(Cl)c1 (stereo not drawn) [Example 152, N-((1r,3r)-3-(3-chloro-4-cyanophenoxy)-2,2,4,4-tetramethylcyclobutyl)-4-(4-((2-((3-(2,6-dioxopiperidin-3-yl)-4-oxo-3,4-dihydrobenzo[d][1,2,3]triazin-6-yl)amino)acetamido)methyl)-1H-1,2,3-triazol-1-yl)benzamide]
- CC50: 233 nM

SMILES: CC1(C)C(NC(=O)c2ccc(C#CC3CCN(c4ccc5nnn(C6CCC(=O)NC6=O)c(=O)c5c4)CC3)cc2)C(C)(C)C1Oc1ccc(C#N)c(Cl)c1 (stereo not drawn) [Example 142, N-((1r,3r)-3-(3-chloro-4-cyanophenoxy)-2,2,4,4-tetramethylcyclobutyl)-4-((1-(3-(2,6-dioxopiperidin-3-yl)-4-oxo-3,4-dihydrobenzo[d][1,2,3]triazin-6-yl)piperidin-4-yl)ethynyl)benzamide]
- CC50: 7.1 nM

SMILES: CC1(C)C(NC(=O)c2ccc(N3CC4CN(CC5CCN(C(=O)C6CCN(c7ccc8nnn(C9CCC(=O)NC9=O)c(=O)c8c7)CC6)CC5)CC4C3)cc2)C(C)(C)C1Oc1ccc(C#N)c(Cl)c1 (stereo not drawn) [Example 139, N-((1r,3r)-3-(3-chloro-4-cyanophenoxy)-2,2,4,4-tetramethylcyclobutyl)-4-(5-((1-(1-(3-(2,6-dioxopiperidin-3-yl)-4-oxo-3,4-dihydrobenzo[d][1,2,3]triazin-6-yl)piperidine-4-carbonyl)piperidin-4-yl)methyl)hexahydropyrrolo[3,4-c]pyrrol-2(1H)-yl)benzamide]
- CC50: 69.5 nM

SMILES: CC1(C)C(NC(=O)c2ccc(C#CCC3CCN(CC4CCN(C(=O)C5CCN(c6ccc7nnn(C8CCC(=O)NC8=O)c(=O)c7c6)CC5)CC4)CC3)cc2)C(C)(C)C1Oc1ccc(C#N)c(Cl)c1 (stereo not drawn) [Example 116, N-((1r,3r)-3-(3-chloro-4-cyanophenoxy)-2,2,4,4-tetramethylcyclobutyl)-4-(3-(1-((1-(1-(3-(2,6-dioxopiperidin-3-yl)-4-oxo-3,4-dihydrobenzo[d][1,2,3]triazin-6-yl)piperidine-4-carbonyl)piperidin-4-yl)methyl)piperidin-4-yl)prop-1-yn-1-yl)benzamide]
- CC50: 16.1 nM

SMILES: CC1(C)C(NC(=O)c2ccc(N3CCN(Cc4cn(C5CCN(c6ccc7nnn(C8CCC(=O)NC8=O)c(=O)c7c6)CC5)nn4)CC3)cc2)C(C)(C)C1Oc1ccc(C#N)c(Cl)c1 (stereo not drawn) [Example 105, N-((1r,3r)-3-(3-chloro-4-cyanophenoxy)-2,2,4,4-tetramethylcyclobutyl)-4-(4-((1-(1-(3-(2,6-dioxopiperidin-3-yl)-4-oxo-3,4-dihydrobenzo[d][1,2,3]triazin-6-yl)piperidin-4-yl)-1H-1,2,3-triazol-4-yl)methyl)piperazin-1-yl)benzamide]
- CC50: 80.2 nM

SMILES: CC1(C)C(NC(=O)c2ccc(-n3cc(CCNc4ccc5nnn(C6CCC(=O)NC6=O)c(=O)c5c4)nn3)cc2)C(C)(C)C1Oc1ccc(C#N)c(Cl)c1 (stereo not drawn) [Example 153, N-((1r,3r)-3-(3-chloro-4-cyanophenoxy)-2,2,4,4-tetramethylcyclobutyl)-4-(4-(2-((3-(2,6-dioxopiperidin-3-yl)-4-oxo-3,4-dihydrobenzo[d][1,2,3]triazin-6-yl)amino)ethyl)-1H-1,2,3-triazol-1-yl)benzamide]
- CC50: 45.4 nM

SMILES: CC1(C)C(NC(=O)c2ccc(-c3cnn(C4CCN(CC5CCN(C(=O)CNc6ccc7nnn(C8CCC(=O)NC8=O)c(=O)c7c6)CC5)CC4)c3)cc2)C(C)(C)C1Oc1ccc(C#N)c(Cl)c1 (stereo not drawn) [Example 112, N-((1r,3r)-3-(3-chloro-4-cyanophenoxy)-2,2,4,4-tetramethylcyclobutyl)-4-(1-(1-((1-((3-(2,6-dioxopiperidin-3-yl)-4-oxo-3,4-dihydrobenzo[d][1,2,3]triazin-6-yl)glycyl)piperidin-4-yl)methyl)piperidin-4-yl)-1H-pyrazol-4-yl)benzamide]
- CC50: 16 nM

SMILES: CC1(C)C(NC(=O)c2ccc(N3CCN(CC4CCN(CCNC(=O)CNc5ccc6nnn(C7CCC(=O)NC7=O)c(=O)c6c5)CC4)CC3)cc2)C(C)(C)C1Oc1ccc(C#N)c(Cl)c1 (stereo not drawn) [Example 59, N-((1r,3r)-3-(3-chloro-4-cyanophenoxy)-2,2,4,4-tetramethylcyclobutyl)-4-(4-((1-(2-(2-((3-(2,6-dioxopiperidin-3-yl)-4-oxo-3,4-dihydrobenzo[d][1,2,3]triazin-6-yl)amino)acetamido)ethyl)piperidin-4-yl)methyl)piperazin-1-yl)benzamide]
- CC50: ~1000 nM

SMILES: CC1(C)C(NC(=O)c2ccc(C#CCC3CCN(CC4CCN(C(=O)CNc5ccc6nnn(C7CCC(=O)NC7=O)c(=O)c6c5)CC4)CC3)cc2)C(C)(C)C1Oc1ccc(C#N)c(Cl)c1 (stereo not drawn) [Example 118, N-((1r,3r)-3-(3-chloro-4-cyanophenoxy)-2,2,4,4-tetramethylcyclobutyl)-4-(3-(1-((1-((3-(2,6-dioxopiperidin-3-yl)-4-oxo-3,4-dihydrobenzo[d][1,2,3]triazin-6-yl)glycyl)piperidin-4-yl)methyl)piperidin-4-yl)prop-1-yn-1-yl)benzamide]
- CC50: 17 nM

SMILES: CC1(C)C(NC(=O)c2ccc(-n3cc(CCNC(=O)C4CCN(c5ccc6nnn(C7CCC(=O)NC7=O)c(=O)c6c5)CC4)nn3)cc2)C(C)(C)C1Oc1ccc(C#N)c(Cl)c1 (stereo not drawn) [Example 154, N-(2-(1-(4-(((1r,3r)-3-(3-chloro-4-cyanophenoxy)-2,2,4,4-tetramethylcyclobutyl)carbamoyl)phenyl)-1H-1,2,3-triazol-4-yl)ethyl)-1-(3-(2,6-dioxopiperidin-3-yl)-4-oxo-3,4-dihydrobenzo[d][1,2,3]triazin-6-yl)piperidine-4-carboxamide]
- CC50: 41.6 nM

SMILES: CC1(C)C(NC(=O)c2ccc(C#CCC3CCN(CC4CCN(c5ccc6nnn(C7CCC(=O)NC7=O)c(=O)c6c5)CC4)CC3)nc2)C(C)(C)C1Oc1ccc(C#N)c(Cl)c1 (stereo not drawn) [Example 129, N-((1r,3r)-3-(3-chloro-4-cyanophenoxy)-2,2,4,4-tetramethylcyclobutyl)-6-(3-(1-((1-(3-(2,6-dioxopiperidin-3-yl)-4-oxo-3,4-dihydrobenzo[d][1,2,3]triazin-6-yl)piperidin-4-yl)methyl)piperidin-4-yl)prop-1-yn-1-yl)nicotinamide]
- CC50: 19.4 nM

SMILES: CC1(C)[C@H](NC(=O)c2ccc(-n3cc(CN4CCN(C(=O)CNc5ccc6nnn(C7CCC(=O)NC7=O)c(=O)c6c5)CC4)nn3)cc2)C(C)(C)[C@H]1Oc1ccc(C#N)c(Cl)c1 (stereo partly drawn) [Example 123, N-((1r,3r)-3-(3-chloro-4-cyanophenoxy)-2,2,4,4-tetramethylcyclobutyl)-4-(4-((4-((3-(2,6-dioxopiperidin-3-yl)-4-oxo-3,4-dihydrobenzo[d][1,2,3]triazin-6-yl)glycyl)piperazin-1-yl)methyl)-1H-1,2,3-triazol-1-yl)benzamide]
- CC50: 55 nM

SMILES: CC1(C)C(NC(=O)c2ccc(C#CC3CCN(C(=O)C4CN(c5ccc6nnn(C7CCC(=O)NC7=O)c(=O)c6c5)C4)CC3)cc2)C(C)(C)C1Oc1ccc(C#N)c(Cl)c1 (stereo not drawn) [Example 95, N-((1r,3r)-3-(3-chloro-4-cyanophenoxy)-2,2,4,4-tetramethylcyclobutyl)-4-((1-(1-(3-(2,6-dioxopiperidin-3-yl)-4-oxo-3,4-dihydrobenzo[d][1,2,3]triazin-6-yl)azetidine-3-carbonyl)piperidin-4-yl)ethynyl)benzamide]
- CC50: 4.5 nM

SMILES: CC1(C)C(NC(=O)c2cnc(N3CCN(CC4CCN(C(=O)COc5ccc6nnn(C7CCC(=O)NC7=O)c(=O)c6c5)CC4)CC3)nc2)C(C)(C)C1Oc1ccc(C#N)c(Cl)c1 (stereo not drawn) [Example 148, N-((1r,3r)-3-(3-chloro-4-cyanophenoxy)-2,2,4,4-tetramethylcyclobutyl)-2-(4-((1-(2-((3-(2,6-dioxopiperidin-3-yl)-4-oxo-3,4-dihydrobenzo[d][1,2,3]triazin-6-yl)oxy)acetyl)piperidin-4-yl)methyl)piperazin-1-yl)pyrimidine-5-carboxamide]
- CC50: ~10 nM

SMILES: CC1(C)C(NC(=O)c2ccc(-n3cc(CNC(=O)C4CN(c5ccc6nnn(C7CCC(=O)NC7=O)c(=O)c6c5)C4)nn3)cc2)C(C)(C)C1Oc1ccc(C#N)c(Cl)c1 (stereo not drawn) [Example 151, N-((1-(4-(((1r,3r)-3-(3-chloro-4-cyanophenoxy)-2,2,4,4-tetramethylcyclobutyl)carbamoyl)phenyl)-1H-1,2,3-triazol-4-yl)methyl)-1-(3-(2,6-dioxopiperidin-3-yl)-4-oxo-3,4-dihydrobenzo[d][1,2,3]triazin-6-yl)azetidine-3-carboxamide]
- CC50: 25.6 nM

SMILES: CC1(C)[C@H](NC(=O)c2ccc(N3CC4CN(CC5CCN(C(=O)C6CN(c7ccc8nnn(C9CCC(=O)NC9=O)c(=O)c8c7)C6)CC5)CC4C3)cc2)C(C)(C)[C@H]1Oc1ccc(C#N)c(Cl)c1 (stereo partly drawn) [Example 140, N-((1r,3r)-3-(3-chloro-4-cyanophenoxy)-2,2,4,4-tetramethylcyclobutyl)-4-(5-((1-(1-(3-(2,6-dioxopiperidin-3-yl)-4-oxo-3,4-dihydrobenzo[d][1,2,3]triazin-6-yl)azetidine-3-carbonyl)piperidin-4-yl)methyl)hexahydropyrrolo[3,4-c]pyrrol-2(1H)-yl)benzamide]
- CC50: 30 nM

SMILES: CC1(C)[C@H](NC(=O)c2ccc(CCN3CC4CN(c5ccc6nnn(C7CCC(=O)NC7=O)c(=O)c6c5)CC4C3)cc2)C(C)(C)[C@H]1Oc1ccc(C#N)c(Cl)c1 (stereo partly drawn) [Example 92, N-((1r,3r)-3-(3-chloro-4-cyanophenoxy)-2,2,4,4-tetramethylcyclobutyl)-4-(2-(5-(3-(2,6-dioxopiperidin-3-yl)-4-oxo-3,4-dihydrobenzo[d][1,2,3]triazin-6-yl)hexahydropyrrolo[3,4-c]pyrrol-2(1H)-yl)ethyl)benzamide]
- CC50: > 10000 nM

SMILES: CC1(C)C(NC(=O)c2ccc(C#CCC3CCN(CC4CCN(C(=O)COc5ccc6nnn(C7CCC(=O)NC7=O)c(=O)c6c5)CC4)CC3)cc2)C(C)(C)C1Oc1ccc(C#N)c(Cl)c1 (stereo not drawn) [Example 119, N-((1r,3r)-3-(3-chloro-4-cyanophenoxy)-2,2,4,4-tetramethylcyclobutyl)-4-(3-(1-((1-(2-((3-(2,6-dioxopiperidin-3-yl)-4-oxo-3,4-dihydrobenzo[d][1,2,3]triazin-6-yl)oxy)acetyl)piperidin-4-yl)methyl)piperidin-4-yl)prop-1-yn-1-yl)benzamide]
- CC50: 36 nM
